Measurements reported in patent US20140228540A1, “POLYPEPTIDES THAT BIND TISSUE INHIBITOR OF METALLOPROTEINASE TYPE THREE (TIMP-3), COMPOSITIONS AND METHODS” (Amgen Inc., priority 2009, published 2014).
Where two headings read alike, the source gives them in different places.

B1: Cluster I: LRP-1 peptide, amino acids 27-114 of LRP-1 (SEQ ID NO:1) (protein, listed as Homo sapiens)
chain: CSPKQFACRDQITCISKGWRCDGERDCPDGSDEAPEICPQSKAQRCQPNEHNCLGTELCVPMSRLCNGVQDCMDGSDEGPHCRELQGN
B2: LA3-10: LRP-1 peptide multimer, not listed in Table 1 (protein)
chain: CQPGEFACANSRCIQERWKCDGDNDCLDNSDEAPALCHQHTCPSDRFKCENNRCIPNRWLCDGDNDCGNSEDESNATCSARTCPPNQFSCASGRCIPISWTCDLDDDCGDRSDESASCAYPTCFPLTQFTCNNGRCININWRCDNDNDCGDNSDEAGCSHSCSSTQFKCNSGRCIPEHWTCDGDNDCGDYSDETHANCTNQATRPPGGCHTDEFQCRLDGLCIPLRWRCDGDTDCMDSSDEKSCEGVTHVCDPSVKFGCKDSARCISKAWVCDGDNDCEDNSDEENCESLACRPPSHPCANNTSVCLPPDKLCDGNDDCGDGSDEGELCDQ
B3: LA13-15: LRP-1 peptide multimer, amino acids 2605- (end not printed) (protein)
chain: CGVGEFRCRDGTCIGNSSRCNQFVDCEDASDEMNCSATDCSSYFRLGVKGVLFQPCERTSLCYAPSWVCDGANDCGDYSDERDCPGVKRPRCPLNYFACPSGRCIPMSWTCDKEDDCEHGEDETHCNKF
B4: LA15-17: LRP-1 peptide multimer, amino acids 2696- (end not printed) (protein)
chain: CPLNYFACPSGRCIPMSWTCDKEDDCEHGEDETHCNKFCSEAQFECQNHRCISKQWLCDGSDDCGDGSDEAAHCEGKTCGPSSFSCPGTHVCVPERWLCDGDKDCADGADESIAAGCLYNST

Legend:
[1] = test system: biotinylated recombinant human or mouse TIMP-3; experiment: TIMP-3 AlphaScreen binding assay
Method: Peptides were also evaluated by AlphaScreen® (Amplified Luminescent Proximity Homogeneous Assay; PerkinElmer, Waltham, Mass.) a very sensitive non-radioactive homogeneous assay technology that allows the screening of a large range of biological interactions and activities, substantially according to the manufacturer's instructions. Briefly, all dilutions are made in AlphaScreen® Buffer: [40 mM HEPES pH 7.5, 100 mM NaCl, 1 mM CaCl2, 0.1% BSA, 0.05% Tween-20]. The LRP-1 peptides are titrated in a separate polypropylene 96-well plate (Falcon) starting at 4 microM concentration and then diluted serially 3-fold for 12-points, with the last point buffer only. First 2 microL/well of protein titration curve is added to white, small volume, 384-well assay plate (Greiner Bio-One, Stonehouse, UK) in duplicate. Next, 2 microL of biotinylated (AFS, in-house conjmicroGation) recombinant human or mouse TIMP-3, is added at 12 nM (or 3 nM final assay concentration) to the assay plate. Lastly, in subdued light 4 microL of a mixture of streptavidin donor beads, anti-mouse IgG acceptor beads (PerkinElmer) both diluted to 20 microG/mL (10 microG/mL final assay concentration) and 2 nM (1 nM final concentration) rat-anti-HA (clone3F10)-HRP (Roche Diagnostics) is added to the plates. Plates containing 8 microL final assay volume are covered with TopSeal A (to prevent evaporation), spun quickly at 1000 rpm, and incubated overnight (covered with foil to prevent light exposure) before reading on Fusion plate reader (PerkinElmer) using AlphaScreen® parameters (excitation 680 nm and emission 520-620 nm). Data is analyzed using GraphPad Prism 4.01 software. Binding to TIMP-3 is reported as total signal (cps).

TIMP-3 = experiment: Binding ELISA of LRP-1 peptides to TIMP-3 (Table 2; format and species not specified); parameters: species or system human or mouse
HTB-94 cells = experiment: Accumulation of TIMP-3 in the medium of cultured HTB-94 cells; type: cell-based
Method: This example describes an assay to evaluate the accumulation of TIMP-3 in the medium of cultured cells. HTB-94™ cells (a chondrocytic cell line available from the American Type Culture Collection, Manassas, Va.) are plated to 24-well tissue culture plates at 1×10̂5 cells per well in 1 ml growth medium (RPM11640, 10% FBS, 1% PSG), and incubated at 37 C, 5% CO2 overnight. The cells are then washed once with PBS, and the wells are replenished with 250 microL serum-free medium (RPM11640, 1% PSG; designated SF in the tables below) to which is added the polypeptide being tested or a control (for example medium containing heparin, 1 mg/ml). Proteins to be tested are diluted to appropriate concentrations, for example as shown in the Tables below, and added to the cells. Cells are then incubated at 37 C, 5% CO2 for two additional days, day 2 conditioned medium (CM) samples are collected and clarified by centrifugation (i.e., for 5 minutes at 10K RPM) and the supernatant fluid is collected and stored at −20 C until assayed. Analysis is done on 100 microL CM samples, either by Western blot or by using a standard human TIMP-3 ELISA as per the manufacturer's protocol (R&D Systems Inc., Minneapolis, Minn.).

[2] = Assay 2, read-out: Binding ELISA EC50 (nm) Assay 2
[3] = Assay 1, read-out: Binding ELISA EC50 (nm) Assay 1

Molecule | AlphaScreen total signal (cps) Assay 1 [1] | TIMP-3 (ng/ml) in conditioned medium (HTB-94 cells; Table 6, peptides 2 microM) | AlphaScreen total signal (cps) Assay 2 [1] | TIMP-3 (ng/ml) in conditioned medium (HTB-94 cells; Table 7, peptides 2 microM) | also measured
LA20: LRP-1 peptide monomer, amino acids 2904-2943 (CNASSQFLCSSGRCVAEALLCNGQDDCGDSSDERGCHINE) | 2,200 cps | 0.96 ng/mL | – | – | EC50 (TIMP-3; [2]): > 10000 nM
LA23-24: LRP-1 peptide multimer, amino acids 3413-3493 | 2,200 cps | – | 2,000 cps | 1.38 ng/mL | –
LA24-25: LRP-1 peptide multimer, amino acids 3453-3535 | 290,000 cps | – | 130,000 cps | 2.48 ng/mL | –
LA17: LRP-1 peptide monomer, amino acids 2774-2817 | 2,200 cps | 1.06 ng/mL | – | – | EC50 (TIMP-3; [2]): > 5000 nM
LA24-26: LRP-1 peptide multimer, amino acids 3453- (end not printed) | 150,000 cps | – | 120,000 cps | 10.38 ng/mL | –
LA3-5: LRP-1 peptide multimer, amino acids 854-975 | 4,000 cps | – | 9,000 cps | 4.22 ng/mL | –
LA4-5: LRP-1 peptide multimer, amino acids 895-975 | 2,200 cps | – | 2,000 cps | 2.68 ng/mL | –
LA5: LRP-1 peptide monomer, amino acids 931-975 | 2,200 cps | 0.94 ng/mL | 2,000 cps | – | EC50 (TIMP-3; [2]): 1080 nM
LA27: LRP-1 peptide monomer, amino acids 3575-3612 | 2,200 cps | – | – | 0.65 ng/mL | –
LA22: LRP-1 peptide monomer, amino acids 3374-3412 | 2,200 cps | 0.96 ng/mL | – | – | –
LA16: LRP-1 peptide monomer, amino acids 2734-2773 | 2,200 cps | 0.94 ng/mL | – | – | –
LA3-4: LRP-1 peptide multimer, amino acids 854-930 | 9,000 cps | – | 3,500 cps | – | –
LA25-26: LRP-1 peptide multimer, amino acids printed as 3594-3574 | 20,000 cps | – | 5,000 cps | 9.30 ng/mL | –
LA24: LRP-1 peptide monomer, amino acids 3453-3493 | 2,200 cps | 0.41 ng/mL | 2,000 cps | – | –
LA26: LRP-1 peptide monomer, amino acids 3536-3574 | 2,200 cps | – | – | 1.01 ng/mL | –
LA6: LRP-1 peptide monomer, amino acids 976-1014 | 2,200 cps | 1.07 ng/mL | – | – | –
LA21: LRP-1 peptide monomer, amino acids 3334-3373 | 2,200 cps | 1.82 ng/mL | – | – | –
LA18-20: LRP-1 peptide multimer, amino acids 2818- (end not printed) | 3,000 cps | – | – | – | EC50 (TIMP-3; [3]): ~300 nM
Cluster III: LRP-1 peptide, amino acids 2524- (end not printed) | – | – | – | – | Accumulation of TIMP-3 in conditioned medium by Western blot (HTB-94 cells): did not result in significant accumulation
LA25: LRP-1 peptide monomer, amino acids 3494-3535 | 5,000 cps | – | 2,000 cps | 1.24 ng/mL | –
LA3: LRP-1 peptide monomer, amino acids 854-894 | 2,200 cps | 0.60 ng/mL | 2,000 cps | – | –
LA5-7: LRP-1 peptide multimer, amino acids 931-1061 | 2,000 cps | – | 8,000 cps | – | –
B1 | – | 0.65 ng/mL | – | 0.87 ng/mL | TIMP-3 (ng/ml) in conditioned medium (HTB-94 cells; Table 5, polypeptide 0.5 microM): 1.02 ng/mL; TIMP-3 (ng/ml) in conditioned medium (HTB-94 cells; Table 5, polypeptide 1 microM): 0.86 ng/mL; TIMP-3 (ng/ml) in conditioned medium (HTB-94 cells; Table 5, polypeptide 2 microM): 0.81 ng/mL; TIMP-3 (ng/ml) in conditioned medium (HTB-94 cells; Table 8, polypeptide 0.5 microM): 1.41 ng/mL; TIMP-3 (ng/ml) in conditioned medium (HTB-94 cells; Table 8, polypeptide 1 microM): 1.19 ng/mL; TIMP-3 (ng/ml) in conditioned medium (HTB-94 cells; Table 8, polypeptide 2 microM): 1.44 ng/mL; Accumulation of TIMP-3 in conditioned medium by Western blot (HTB-94 cells): did not result in significant accumulation
B2 | – | – | 100,000 cps | – | EC50 (TIMP-3; [3]): 45.5 nM; EC50 (TIMP-3; Assay 3, read-out: Binding ELISA EC50 (nm) Assay 3): 32.5 nM
B3 | 1,200 cps | – | – | – | –
B4 | 90,000 cps | – | 70,000 cps | 4.70 ng/mL | –
